Source: article PMC6018403 (Frontiers in Pharmacology, 2018)
Like-named read-outs stand apart in the source and are kept apart here.

Assay: Multi-component pharmacokinetic study of GQD, GQD-GC and single herb extracts in rats (plasma, LC/MS/MS)
Type: in vivo, Sprague-Dawley rats
Conditions: for AUC(0-t) / Cmax / half-life / Tmax: male, Sprague-Dawley, rat
Method: Male Sprague-Dawley rats (220–250 g) were used for PK study, and the details were described in Supplemental Data. All procedures were in accordance with the National Institutes of Health Guide for the Care and Use of Laboratory Animals.
For PK study of GQD and its component herbs, rats were randomly divided into six groups (n = 10 for each group) before oral administration.
All blood samples were immediately centrifuged at 6,000 rpm (4°C) for 20 min to obtain plasma. The plasma samples were stored at −80°C.
A Finnigan TSQ Quantum triple quadrupole mass spectrometer was connected to a Surveyor HPLC via ESI interface (ThermoFisher). High purity nitrogen was used as the sheath and auxiliary gas; Ultra-high purity argon was used as the collision gas (1.5 mTorr). Q1 and Q3 quadrupoles were set at unit resolution. […] The column temperature was 40°C. The mobile phase consisted of acetonitrile containing 2% (v/v) methanol (A) and water containing 0.1% (v/v) formic acid (B). […] An aliquot of 5 μL was injected for analysis. UV spectra were obtained by scanning from 200 to 400 nm. The mass spectrometer was operated in the (+)-ESI mode. The optimized parameters were as follows: sheath gas (N2), 50 arb; auxiliary gas (N2), 5 arb; spray voltage, 4.0 kV; capillary temperature, 330°C; collision energy, see Table S1. Analytes were detected in the selected reaction monitoring (SRM) mode. Data were processed by Xcalibur 2.0.7 software (ThermoFisher).
LC/MS/MS calibration and quantitation data were processed with Xcalibur 2.0.7 software (ThermoFisher). The maximal plasma concentrations (Cmax) and their time of occurrence (Tmax) were obtained directly from the measured data. Other pharmacokinetic parameters were calculated by non-compartment or compartment models using WinNonlin® software (v6.1, Pharsight). Unless otherwise stated, results were expressed as the mean ± SD. Statistical significance in differences of the means was determined by Student's t–test, with a significance level of P < 0.05.
Herbal materials and extracts.
The four component herbs, Puerariae Lobatae Radix (Ge-Gen, GG), Scutellariae Radix (Huang-Qin, HQ), Coptidis Rhizoma (Huang-Lian, HL), and Glycyrrhizae Radix et Rhizoma Praeparata cum Melle (Gan-Cao, GC) were purchased from Tianheng Pharmacy. GQD was prepared by decocting the four component herbs […]
pre-extraction of Ge-Gen using 200 mL of water for 0.5 h. The decoctions were combined, filtered, and concentrated in vacuum at 50 °C. GQD-GC was prepared using the same procedure, except that Gan-Cao was removed from the formula. Final concentration of the GQD-GC extract was equivalent to 1.0 g of the crude drugs per mL. For single herb extracts, the herbs were decocted in 8-fold volume of water for […]
Final concentrations of the extracts were 1.0 g/mL for Ge-Gen, and 0.5 g/mL for Huang-Qin, Huang-Lian and […]
For pharmacokinetic study, Male Sprague-Dawley rats (220-250 g) were obtained from the Laboratory Animal Center of Peking University Health Science Center. The […]
The rats had free access to tap water and soy-free custom diet (Ke’ao Xieli Co.). All procedures were in accordance with the National Institutes of Health Guide for the Care and Use of Laboratory Animals […]
Experimental details for the PK study
1. Preparation of internal standard solution, calibration standard solutions, and quality control solutions […]
internal standard solution. Reference standard compounds were dissolved in the internal standard solution to prepare individual stock solutions (1.0 mg/mL). These […]
each compound. The standard solution was then serially diluted to obtain calibration […]
Quality control stock solutions were prepared at three concentration levels as high QC (HQC), middle QC (MQC), and low QC (LQC), based on linear ranges of the analytes.
2.1. Sample preparation for pharmacokinetic study
The calibration standard and quality control solutions for pharmacokinetic study were […]

[1] = plasma, po, 16.5 g/kg, GQD-GC group (GQD without Gan-Cao): rats, oral 16.5 g/kg, plasma, read-out: AUClast
[2] = plasma, po, 18.9 g/kg, GQD group: rats, oral GQD extract 18.9 g/kg, plasma, read-out: AUClast
[3] = GQD group: rats, oral GQD extract 18.9 g/kg, plasma, read-out: Cmax
[4] = GQD group: rats, oral GQD extract 18.9 g/kg, plasma, read-out: T1/2 (converted)
[5] = GQD group: rats, oral GQD extract 18.9 g/kg, plasma, read-out: Tmax
[6] = GQD-GC group (GQD without Gan-Cao): rats, oral 16.5 g/kg, plasma, read-out: Cmax
[7] = GQD-GC group (GQD without Gan-Cao): rats, oral 16.5 g/kg, plasma, read-out: T1/2 (converted)
[8] = GQD-GC group (GQD without Gan-Cao): rats, oral 16.5 g/kg, plasma, read-out: Tmax
[9] = in vivo, po, 2.36 g/kg, AUClast
[10] = in vivo, po, 18.9 g/kg, AUClast

COc1cc2c(cc1O)CC[n+]1cc3c(OC)c(OC)ccc3cc1-2 [Compound 23, jatrorrhizine]
AUC(0-t) (plasma, po, 3.54 g/kg, HL (Huang-Lian) group: rats, oral extract 3.54 g/kg, plasma, read-out: AUClast): 119 ± 52.4 ng·h/mL
AUC(0-t) (plasma, po, 3.54 g/kg, Huang-Lian group: rats, oral 3.54 g/kg, plasma, read-out: AUClast): 119 ± 52.4 ng·h/mL
AUC(0-t) [1]: 105 ± 34.2 ng·h/mL
AUC(0-t) (plasma, po, 16.5 g/kg, GQD−GC group: rats, oral 16.5 g/kg, plasma, read-out: AUClast): 105 ± 34.2 ng·h/mL
AUC(0-t) [2]: 195 ± 25.7 ng·h/mL
AUC(0-t) (plasma, po, 18.9 g/kg, GQD group: rats, oral GQD 18.9 g/kg (1.5-fold of clinical dosage), plasma, read-out: AUClast): > 100 ng·h/mL
Cmax [3]: 8.54 ± 0.05 ng/mL
half-life [4]: 6.97 ± 1.77 h
Tmax [5]: 0.72 ± 0.11 h
Cmax [6]: 9.14 ± 0.82 ng/mL
half-life [7]: 3.12 ± 0.13 h
Tmax [8]: 0.63 ± 0.32 h
Cmax (HL (Huang-Lian) group: rats, oral extract 3.54 g/kg, plasma, read-out: Cmax): 6.6 ± 0.59 ng/mL
half-life (HL (Huang-Lian) group: rats, oral extract 3.54 g/kg, plasma, read-out: T1/2 (converted)): 5.15 ± 1.74 h
Tmax (HL (Huang-Lian) group: rats, oral extract 3.54 g/kg, plasma, read-out: Tmax): 0.61 ± 0.11 h
increase of AUClast in GQD group compared with the Huang-Lian group (rats, oral, GQD vs Huang-Lian): 63.6%

O=c1c(-c2ccc(O)cc2)coc2c([C@@H]3O[C@H](CO)[C@@H](O)[C@H](O)[C@H]3O)c(O)ccc12 [Compound 7, puerarin]
AUC(0-t) (plasma, po, 9.45 g/kg, GG (Ge-Gen) group: rats, oral extract 9.45 g/kg, plasma, read-out: AUClast): 5020 ± 536 ng·h/mL
AUC(0-t) (plasma, po, 9.45 g/kg, Ge-Gen group: rats, oral 9.45 g/kg, plasma, read-out: AUClast): 5020 ± 536 ng·h/mL
AUC(0-t) [1]: 5610 ± 279 ng·h/mL
AUC(0-t) [2]: 8610 ± 766 ng·h/mL
Cmax (GG (Ge-Gen) group: rats, oral extract 9.45 g/kg, plasma, read-out: Cmax): 488 ± 23.9 ng/mL
half-life (GG (Ge-Gen) group: rats, oral extract 9.45 g/kg, plasma, read-out: T1/2 (converted)): 6.36 ± 4.39 h
Tmax (GG (Ge-Gen) group: rats, oral extract 9.45 g/kg, plasma, read-out: Tmax): 0.59 ± 0.01 h
Cmax [3]: 577 ± 56.3 ng/mL
half-life [4]: 5.58 ± 2.9 h
Tmax [5]: 1.2 ± 1.49 h
Cmax [6]: 416 ± 232 ng/mL
half-life [7]: 8.29 ± 2.22 h
Tmax [8]: 0.52 ± 0.07 h
bioavailability in the GQD group compared with the Ge-Gen group (rats, oral): higher

O=C(O)[C@H]1O[C@@H](Oc2cc(O)c3c(=O)cc(-c4ccccc4)oc3c2O)[C@H](O)[C@@H](O)[C@@H]1O [Compound 14, norwogonin 7-O-glucuronide]
AUC(0-t) (plasma, po, 3.54 g/kg, HQ (Huang-Qin) group: rats, oral extract 3.54 g/kg, plasma, read-out: AUClast): 11000 ± 2530 ng·h/mL
AUC(0-t) (plasma, po, 3.54 g/kg, Huang-Qin group: rats, oral 3.54 g/kg, plasma, read-out: AUClast): 11000 ± 2530 ng·h/mL
AUC(0-t) [1]: 6030 ± 272 ng·h/mL
AUC(0-t) [2]: 5270 ± 987 ng·h/mL
Cmax [3]: 379 ± 98.5 ng/mL
half-life [4]: 4.88 ± 2.87 h
Tmax [5]: 7.05 ± 1.23 h
Cmax [6]: 359 ± 34.3 ng/mL
half-life [7]: 4.28 ± 1.63 h
Tmax [8]: 6.17 ± 8.34 h
Cmax (HQ (Huang-Qin) group: rats, oral extract 3.54 g/kg, plasma, read-out: Cmax): 547 ± 73.8 ng/mL
half-life (HQ (Huang-Qin) group: rats, oral extract 3.54 g/kg, plasma, read-out: T1/2 (converted)): 5.1 ± 0.33 h
Tmax (HQ (Huang-Qin) group: rats, oral extract 3.54 g/kg, plasma, read-out: Tmax): 7.36 ± 0.08 h
decrease of Cmax in the GQD group compared with the Huang-Qin group (rats, oral, GQD vs Huang-Qin): at least 30%

O=C1C[C@@H](c2ccc(O)cc2)Oc2cc(O)ccc21 [Compound 29, liquiritigenin]
Cmax (in vivo, po, 2.36 g/kg): 22.63 ± 0.22 ng/mL
Tmax (in vivo, po, 2.36 g/kg): 1 ± 2.34 h
half-life (in vivo, po, 2.36 g/kg): 9.84 ± 3.52 h
AUC(0-t) [9]: 75.4 ± 81.1 ng·h/mL
Cmax (in vivo, po, 18.9 g/kg): 27.4 ± 9.97 ng/mL
Tmax (in vivo, po, 18.9 g/kg): 1 ± 0.93 h
half-life (in vivo, po, 18.9 g/kg): 11.2 ± 7.69 h
AUC(0-t) [10]: 153 ± 9.34 ng·h/mL

CC1(C(=O)O)CCC2(C)CCC3(C)C(=CC(=O)C4C5(C)CCC(OC6OC(C(=O)O)C(O)C(O)C6OC6OC(C(=O)O)C(O)C(O)C6O)C(C)(CO)C5CCC43C)C2C1 (stereo not drawn) [Compound 35, licorice saponin G2]
Cmax (in vivo, po, 2.36 g/kg): 8.98 ± 2.49 ng/mL
Tmax (in vivo, po, 2.36 g/kg): 3.7 ± 1.41 h
half-life (in vivo, po, 2.36 g/kg): 2.3 ± 6.79 h
AUC(0-t) [9]: 81 ± 27.7 ng·h/mL
Cmax (in vivo, po, 18.9 g/kg): 10.3 ± 6.38 ng/mL
Tmax (in vivo, po, 18.9 g/kg): 3.89 ± 1.41 h
half-life (in vivo, po, 18.9 g/kg): 2.53 ± 0.14 h
AUC(0-t) [10]: 102 ± 53.3 ng·h/mL
